One block for each compound: values may come before it.
Tests used:
free fatty acid release = experiment: NEFA competition: free fatty acids in blood of mice (NEFA-C assay kit); format: in vivo; details: for concentration of free fatty acid: blood after 10 minutes (vehicle sample 0.9 mM)
Experimental: After 10 minutes the mice were euthanized and blood was collected. The blood samples were processed and tested for free fatty acid release using the non-esterified fatty-acid (NEFA) assay (the NEFA-C assay kit from Waco Chemicals USA, Richmond, Va.).

[1] = test system: niacin-induced flushing in mice; experiment: Block of niacin-induced flushing in mice, Laser Dopler; format: in vivo; details: for change from baseline (flush) at 3 minutes / change above baseline (flush) at 15 minutes: mice given compound about 10 minutes before niacin; for change from baseline (flush) at 3 minutes: 3 minutes after niacin; for change above baseline (flush) at 15 minutes: at/within 15 minutes after niacin
Experimental: Flushing was measured using a Laser Dopler.
In these experiments, the control group contained anesthetized mice that were administered niacin alone and flushing above baseline was measured over time. […]

mice = experiment: Flush in response to PGD2 in mice treated with niacin receptor partial agonist; format: in vivo; details: mice pretreated with Compound 1 and niacin
Experimental: After re-establishment of baseline, PGD2 was administered and flushing was recorded. […] Baseline was then re-established at 20% above baseline and PGD2 was administered.

[2] = test system: dysmenorrhea or painful menstruation; details: 80 women, 100 mg niacin twice daily, then every 2 to 3 hours during heavy cramps; cited from earlier work

SMILES: C1Cc2[nH]nc(-c3nnn[nH]3)c2C1 [Compound 1, 3-(1H-Tetrazol-5-yl)-1,4,5,6-tetrahydro-cyclopentapyrazole]
interference with the reduction in free fatty acids induced by niacin (free fatty acid release; Compound 1 plus niacin): does not interfere
concentration of free fatty acid (free fatty acid release; Compound 1 plus niacin): 0.38 mM
change from baseline (flush) at 3 minutes [1]: 10%
change above baseline (flush) at 15 minutes [1]: about 20%
flushing induced by niacin ([1]; mice, partial agonist given prior to niacin): significantly reduced

SMILES: O=C(O)c1cc(Cc2cccc(F)c2)[nH]n1 [Compound 2, 5-(3-Fluoro-benzyl)-1H-pyrazole-3-carboxylic acid]
change from baseline (flush) at 3 minutes [1]: 0%
change above baseline (flush) at 15 minutes [1]: about 15%

SMILES: O=C(O)c1cc(Cc2cccc(Cl)c2)[nH]n1 [Compound 3, 5-(3-Chloro-benzyl)-1H-pyrazole-3-carboxylic acid]
change from baseline (flush) at 3 minutes [1]: about 18%
change above baseline (flush) at 15 minutes [1]: about 13%

SMILES: O=C(O)c1cc(Cc2cccc(Br)c2)[nH]n1 [Compound 4, 5-(3-Bromo-benzyl)-1H-pyrazole-3-carboxylic acid]
change from baseline (flush) at 3 minutes [1]: 15%
change above baseline (flush) at 15 minutes [1]: about 30%

time of flush peak after PGD2 administration (mice): about 6 minutes
time after PGD2 administration at which flushing began (mice; baseline re-established at 20% above baseline): about 1.5 minutes
flush peak, % of the original baseline (mice; about 6 minutes after PGD2): about 70%
SMILES: CCCCC[C@H](O)/C=C/[C@H]1C(=O)C[C@H](O)[C@@H]1C/C=C\CCCC(=O)O [PGD2, prostaglandin D2]

time after which mice began to flush ([1]; anesthetized mice, niacin alone): 1.5 min
SMILES: O=C(O)c1cccnc1 [niacin, nicotinic acid, reference compound]
concentration of free fatty acid (free fatty acid release; vehicle plus niacin): 0.4 mM
subjects who experienced significant relief [2]: About 90%
